Literature values, collected in patent US20100022600A1, “METHODS AND COMPOSITIONS FOR TREATING CENTRAL NERVOUS SYSTEM TUMORS” (priority 2006, published 2010).

Experiments:
C6 cells = details: J Neurochem 2002; 81: 1052-60; cited from earlier work
acyl-CoA synthetase = details: PPARγ-independent; J Biol Chem 2001; 276: 33736-40; cited from earlier work
cholesterol biosynthesis = details: PPARγ-independent; Diabetes 1999; 48: 254-60; cited from earlier work
BT4Cn rat glioma cells = details: Carcinogenesis 2001; 22: 1747-55; cited from earlier work

In the case of CC1(COc2ccc(CC3SC(=O)NC3=O)cc2)CCCCC1 (stereo not shown) [ciglitazone, 5-[4-[(1-methylcyclohexyl)methoxy]benzyl]thiazolidine-2,4-dione], the “redifferentiation of C6 cells” value (C6 cells) is given as “increased redifferentiation”.
For Cc1c(C)c2c(c(C)c1O)CCC(C)(COc1ccc(CC3SC(=O)NC3=O)cc1)O2 (single isomer, unassigned; (+)) [troglitazone, (+)-5 [[4-[(3,4-dihydro-6-hydroxy-2,5,7,8-tetramethyl-2H-1-benzopyran-2-yl)methoxy]phenyl]methyl]-2,4thiazolidinedione], the acyl-CoA synthetase (acyl-CoA synthetase) is given as “inhibit” and the cholesterol biosynthesis (cholesterol biosynthesis) is given as “inhibit”.
In the case of O=C(Nc1ccccc1)c1cc([N+](=O)[O-])ccc1Cl [GW9662], the “effect on growth inhibition by PPARγ agonists” value (BT4Cn rat glioma cells) is given as “abolished”.
